{"source": "patent US9273042B2", "about": "“5-amino[1,4]thiazines as BACE 1 inhibitors” (Hoffmann-La Roche Inc., priority 2012, dated 2016)", "data": [{"molecular_target": "BACE1 (Homo sapiens (Human), UniProt P56817)", "sequence (P56817 46-501)": "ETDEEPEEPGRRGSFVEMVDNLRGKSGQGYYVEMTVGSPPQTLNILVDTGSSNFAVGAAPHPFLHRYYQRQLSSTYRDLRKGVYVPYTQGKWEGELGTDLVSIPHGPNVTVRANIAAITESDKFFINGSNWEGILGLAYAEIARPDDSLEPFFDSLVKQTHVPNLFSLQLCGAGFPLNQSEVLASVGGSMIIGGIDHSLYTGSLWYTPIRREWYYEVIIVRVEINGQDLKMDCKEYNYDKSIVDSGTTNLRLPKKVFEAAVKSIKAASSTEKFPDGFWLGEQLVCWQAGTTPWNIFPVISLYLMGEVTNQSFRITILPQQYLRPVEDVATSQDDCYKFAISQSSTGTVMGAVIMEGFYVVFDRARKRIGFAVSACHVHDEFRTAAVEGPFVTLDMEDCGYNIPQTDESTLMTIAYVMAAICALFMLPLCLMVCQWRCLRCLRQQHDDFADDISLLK", "experiment": "Cellular Aβ-lowering assay (Abeta 40 AlphaLISA)", "type": "cell-based", "conditions": "HEK293 APP cells, 18-20 hrs incubation, Aβ 40 in culture supernatants; read-out: BACE1 cell act. Aβ40, IC50", "method": "Cellular Aβ-Lowering Assay:\nThe Abeta 40 AlphaLISA Assay can be used. The HEK293 APP cells were seeded in 96 well Microtiter plates in cell culture medium (Iscove's, plus 10% (v/v) fetal bovine serum, penicillin/streptomycin) to about 80% confluency and the compounds were added at a 3× concentration in ⅓ volume of culture medium (final DMSO concentration was kept at 1% v/v). After 18-20 hrs incubation at 37° C. and 5% CO2 in a humidified incubator, the culture supernatants were harvested for the determination of Aβ 40 concentrations using Perkin-Elmer Human Amyloid beta 1-40 (high specificity) Kit (Cat#AL275C).\nIn a Perkin-Elmer White Optiplate-384 (Cat#6007290), 2 ul culture supernatants were combined with 2 μl of a 10× AlphaLISA Anti-hAβAcceptor beads+Biotinylated Antibody Anti-Aβ 1-40 Mix (50 μg/mL/5 nM). After 1 hour room temperature incubation, 16 μl of a 1.25× preparation of Streptavidin (SA) Donor beads (25 μg/mL) were added and incubated for 30 minutes in the Dark. Light Emission at 615 nm was then recorded using EnVision-Alpha Reader. Levels of Aβ 40 in the culture supernatants were calculated as percentage of maximum signal (cells treated with 1% DMSO without inhibitor). The IC50 values were calculated using the Excel XLfit software.", "units": {"IC50": "nM"}, "values": [{"smiles": "C[C@@]1(c2cc(NC(=O)c3ccc(C#N)cn3)ccc2F)CSCC(N)=N1", "note": "[Example 1, (R)—N-(3-(5-amino-3-methyl-3,6-dihydro-2H-1,4-thiazin-3-yl)-4-fluorophenyl)-5-cyanopicolinamide]", "IC50": 11}, {"smiles": "C[C@@]1(c2cc(NC(=O)c3ccc(C#N)cn3)ccc2F)CS(=O)(=O)CC(N)=N1", "note": "[Example 2, 5-Cyano-pyridine-2-carboxylic acid [3-((R)-5-amino-3-methyl-1,1-dioxo-1,2,3,6-tetrahydro-1λ6-[1,4]thiazin-3-yl)-4-fluoro-phenyl]-amide]", "IC50": 8.2}, {"smiles": "C[C@@]1(c2cc(NC(=O)c3ccc(Cl)cn3)ccc2F)CS(=O)(=O)CC(N)=N1", "note": "[Example 3, 5-Chloro-pyridine-2-carboxylic acid [3-((R)-5-amino-3-methyl-1,1-dioxo-1,2,3,6-tetrahydro-1λ6-[1,4]thiazin-3-yl)-4-fluoro-phenyl]-amide]", "IC50": 6.1}, {"smiles": "C[C@@]1(c2cc(NC(=O)c3ccc(OC(F)F)cn3)ccc2F)CS(=O)(=O)CC(N)=N1", "note": "[Example 4, 5-Difluoromethoxy-pyridine-2-carboxylic acid [3-((R)-5-amino-3-methyl-1,1-dioxo-1,2,3,6-tetrahydro-1λ6-[1,4]thiazin-3-yl)-4-fluoro-phenyl]-amide]", "IC50": 5.7}, {"smiles": "CC1(C)C(N)=N[C@](C)(c2cc(NC(=O)c3ccc(C#N)cn3)ccc2F)CS1(=O)=O", "note": "[Example 6, 5-Cyano-pyridine-2-carboxylic acid [3-((R)-5-amino-3,6,6-trimethyl-1,1-dioxo-1,2,3,6-tetrahydro-1λ6-[1,4]thiazin-3-yl)-4-fluoro-phenyl]-amide]", "IC50": 0.2}, {"smiles": "C[C@@]1(c2cc(NC(=O)c3ccc(C#N)cn3)ccc2F)CS(=O)(=O)C2(CCCC2)C(N)=N1", "note": "[Example 9, 5-Cyano-pyridine-2-carboxylic acid [3-((R)-10-amino-8-methyl-6,6-dioxo-6λ6-thia-9-aza-spiro[4.5]dec-9-en-8-yl)-4-fluoro-phenyl]-amide]", "IC50": 1}]}]}
